Test results: patent US9896423B2, “Deuterium substituted 1-[2-(2,4-dimethyl-phenylsulfanyl)-phenyl]piperazine compound or derivatives thereof, and pharmaceutical composition and use thereof” (Jiangsu Jibeier Pharmaceutical Co. Ltd., priority 2014, dated 2018)
“And” between values parts separate entries of the source, which are not always exact repeats. Identical values can stand only once. Like-named read-outs stand apart in the source and are kept apart here.

How the values were obtained:
Male SD rats = assay: Rats swimming test; assay type: in vivo
Description: The following method is used for testing the antidepression effect of the compound of the present application. ICR mice or SD rats, gavaged for two successive weeks, were subjected to mice swimming test, mice tail suspension test and rats swimming test. See below for details of the tests and results.
Male SD rats weighing 200 to 220 g were used and they were fed with sterilized standard feed. The medicaments were the same as those in the mice tail suspension test, but the dosage administered to rats was half of that to mice.
Drug solution preparation: Since the dosage applied on rats was 1 ml/100 g body weight, the medicament solutions used in this test had the same concentrations as those used on mice.
The apparatus was the same as that in the […].
The rats were fasted for 4 hours, put in a round glass tank (ø 18 cm×h 40 cm, with water of 15 cm depth and at a temperature of 25° C.), and were allowed to swim for 15 min. One tank accommodated one rat at a time. The tank was refilled with clean water for another rat after one rat finished swimming. The rats were dried with a hot-air blower after swimming.
The forty rats were divided into 4 groups, each of which has 10 rats, according to the Excel random grouping.
The medicaments were correspondingly administered 1 ml/100 g body weight by gavage, once a day, to the animals in each test group for 14 successive days. The rat swimming test was performed one hour later after the last administration.
The data was given as “average±standard deviation” (x±s). One-way analysis of variance (ANOVA) was used for data difference statistics. Differences among the groups were determined by P<0.05.

[1] = single oral dose of [14C]-labeled vortioxetine; cited from earlier work
[2] = Pharmacokinetic test in rats, gavage administration; assay type: in vivo, SD rats; details: for bioavailability: read-out: F % (absolute bioavailability), Mean ± SD;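 for AUC0-t (area under the plasma concentration-time curve from zero to the last sampling time): plasma area under the curve AUC0-1 in μg·h/L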
Description: The preferred compound of the present disclosure was assessed in rats for its pharmacokinetic profile.
SD rats, male and female, weighing 150 to 250 g
Mobile phase: 10 mM ammonium formate aqueous solution:methanol=15:85
The ionization source was electrospray ionization source. The detection mode was positive mode. Multiple reaction monitoring (MRM) was used as the scanning mode. The ion reaction for the quantitative analysis was the following: m/z was 305.2\150.0 for XX, and 256.1\167.1 for diphenhydramine (the internal standard).
XX or YY was orally administered with single dose of 20 mg/kg to six SD rats, one half of which were male and the other half was female. XX or YY was dissolved in 10% hydroxypropyl-β-cyclodextrin. […]
After the blood collection, the tubes were immediately gently turned upside down at least five times to ensure sufficient mixing, and placed on ice. Heparin was added for anticoagulation. The samples were centrifuged at 8000 rpm for 5 min to separate serum from erythrocyte. The serum was transferred with a pipettor to 2 mL polypropylene (PP) tubes, which were marked with the name of the compound and the time points, and stored in a refrigerator at −40° C. before LC-MS analysis. Samples with high concentrations were diluted with rat blank plasma.
2.5 μL of Meth-H2O and 5 μL of the internal standard solution (20 ng/mL, IS) were added to 50 μL of the plasma. Subsequently, 150 μL of methanol was added to the mixture to precipitate protein and the samples were then centrifuged at 13000 rpm for 5 min. The upper organic phase was taken out, filtrated with a 0.22 μM microporous membrane, and 2 μL of the sample was injected for the LC-MS analysis.

[3] = rats, oral 20 mg/kg, individual rats 1-6, 20 mg/kg

SMILES: Cc1ccc(Sc2ccccc2N2CCNCC2)c(C)c1 [YY, 1-[2-(2,4-dimethyl-phenylsulfanyl)-phenyl]piperazine]
- effect on length of time that the rats stopped swimming vs blank control (Male SD rats; 1.5 mg/kg gavage, 14 days): did not shorten
- Duration without Move within 5 min (Male SD rats; rats swimming, gavage 14 days, 1.5 mg/kg, n = 10, x ± s): 267.8 ± 27.0 s
- radioactive metabolites recovered in the feces [1]: ~26%
- radioactive metabolites recovered in the urine [1]: approximately 59%
- Concentrations in Plasma of Rats after Oral Administration ([2]; 20 mg/kg oral, 10 min (Table 5: 0.167 h) after administration, individual rats 1-6): 17.9 ng/mL and 9.42 ng/mL and 28.1 ng/mL and 14.3 ng/mL and 38.4 ng/mL and 6.11 ng/mL
- Concentrations in Plasma of Rats after Oral Administration ([2]; 20 mg/kg oral, 0.5 h, individual rats 1-6): 86.5 ng/mL and 38.1 ng/mL and 52.3 ng/mL and 49.7 ng/mL
- Concentrations in Plasma of Rats after Oral Administration ([2]; 20 mg/kg oral, 1 h, individual rats 1-6): 123 ng/mL and 65.5 ng/mL and 77.4 ng/mL and 81.1 ng/mL and 93.2 ng/mL and 55.6 ng/mL
- Concentrations in Plasma of Rats after Oral Administration ([2]; 20 mg/kg oral, 1.5 h, individual rats 1-6): 154 ng/mL and 85.2 ng/mL and 82.9 ng/mL and 89.2 ng/mL and 73.2 ng/mL and 54.9 ng/mL
- Concentrations in Plasma of Rats after Oral Administration ([2]; 20 mg/kg oral, 2 h, individual rats 1-6): 182 ng/mL and 68.3 ng/mL and 91.8 ng/mL and 81.9 ng/mL and 72 ng/mL and 56.4 ng/mL
- Concentrations in Plasma of Rats after Oral Administration ([2]; 20 mg/kg oral, 3 h, individual rats 1-6): 120 ng/mL and 48.2 ng/mL and 58.3 ng/mL and 55.9 ng/mL and 42.9 ng/mL and 34.2 ng/mL
- Concentrations in Plasma of Rats after Oral Administration ([2]; 20 mg/kg oral, 4 h, individual rats 1-6): 93.6 ng/mL and 46.9 ng/mL and 52.9 ng/mL and 55.2 ng/mL and 42.1 ng/mL and 29.9 ng/mL
- Concentrations in Plasma of Rats after Oral Administration ([2]; 20 mg/kg oral, 6 h, individual rats 1-6): 57.4 ng/mL and 37.7 ng/mL and 36.7 ng/mL and 33.5 ng/mL and 30.5 ng/mL and 22.4 ng/mL
- Concentrations in Plasma of Rats after Oral Administration ([2]; 20 mg/kg oral, 8 h, individual rats 1-6): 27.5 ng/mL and 16.7 ng/mL and 17.7 ng/mL and 16.3 ng/mL and 18.8 ng/mL and 11.3 ng/mL
- Concentrations in Plasma of Rats after Oral Administration ([2]; 20 mg/kg oral, 10 h, individual rats 1-6): 14.5 ng/mL and 8.39 ng/mL and 10.9 ng/mL and 8.32 ng/mL and 9.4 ng/mL and 7.24 ng/mL
- Concentrations in Plasma of Rats after Oral Administration ([2]; 20 mg/kg oral, 12 h, individual rats 1-6): 7.3 ng/mL and 4.87 ng/mL and 4.29 ng/mL and 7.01 ng/mL and 4.1 ng/mL and 3.17 ng/mL
- Concentrations in Plasma of Rats after Oral Administration ([2]; 20 mg/kg oral, 14 h, individual rats 1-6): 7.19 ng/mL and 2.5 ng/mL and 3.69 ng/mL and 4.35 ng/mL and 3.79 ng/mL and 2.95 ng/mL
- Concentrations in Plasma of Rats after Oral Administration ([2]; 20 mg/kg oral, 24 h, individual rats 1-6): 0.728 ng/mL and 0.431 ng/mL and 0.716 ng/mL and 0.374 ng/mL and 0.394 ng/mL and 1.21 ng/mL
- MRT inf ([2]; both sexes, SD, rat, plasma, po, 20 mg/kg, rats, oral 20 mg/kg, individual rats 1-6, read-out: MRT0-∞): 4.49 h
- half-life ([2]; both sexes, SD, rat, plasma, po, 20 mg/kg, rats, oral 20 mg/kg, individual rats 1-6, read-out: t1/2 (converted)): 3.05 h
- AUC(0-t) ([2]; both sexes, SD, rat, plasma, po, 20 mg/kg, rats, oral 20 mg/kg, n = 6, read-out: AUC0-1, Mean ± SD): 489 ± 180 ng·h/mL
- AUC(0-inf) ([2]; both sexes, SD, rat, plasma, po, 20 mg/kg, rats, oral 20 mg/kg, n = 6, read-out: AUC0-∞, Mean ± SD): 491 ± 181 ng·h/mL
- Cmax ([2]; both sexes, SD, rat, plasma, po, 20 mg/kg, rats, oral 20 mg/kg, n = 6, read-out: Cmax, Mean ± SD): 99.6 ± 42.6 ng/mL
- MRT inf ([2]; both sexes, SD, rat, plasma, po, 20 mg/kg, rats, oral 20 mg/kg, n = 6, read-out: MRT0-∞, Mean ± SD): 4.75 ± 0.31 h
- half-life ([2]; both sexes, SD, rat, plasma, po, 20 mg/kg, rats, oral 20 mg/kg, n = 6, read-out: t1/2, Mean ± SD (converted)): 2.96 ± 0.43 h
- concentration at 10 min ([2]; both sexes, Sprague-Dawley, rat, plasma, oral, 20 mg/kg, 20 mg/kg oral, 10 min (Table 5: 0.167 h), mean of 6 rats, read-out: Concentrations in Plasma of Rats after Oral Administration, Mean ± SD): 19 ± 12.2 ng/mL
- concentration at 0.5 h ([2]; both sexes, Sprague-Dawley, rat, plasma, oral, 20 mg/kg, 20 mg/kg oral, 0.5 h, mean of 6 rats, read-out: Concentrations in Plasma of Rats after Oral Administration, Mean ± SD): 54.9 ± 16.8 ng/mL
- concentration at 1 h ([2]; both sexes, Sprague-Dawley, rat, plasma, oral, 20 mg/kg, 20 mg/kg oral, 1 h, mean of 6 rats, read-out: Concentrations in Plasma of Rats after Oral Administration, Mean ± SD): 82.6 ± 23.6 ng/mL
- concentration at 1.5 h ([2]; both sexes, Sprague-Dawley, rat, plasma, oral, 20 mg/kg, 20 mg/kg oral, 1.5 h, mean of 6 rats, read-out: Concentrations in Plasma of Rats after Oral Administration, Mean ± SD): 89.9 ± 33.7 ng/mL
- concentration at 2 h ([2]; both sexes, Sprague-Dawley, rat, plasma, oral, 20 mg/kg, 20 mg/kg oral, 2 h, mean of 6 rats, read-out: Concentrations in Plasma of Rats after Oral Administration, Mean ± SD): 92.1 ± 45.7 ng/mL
- concentration at 3 h ([2]; both sexes, Sprague-Dawley, rat, plasma, oral, 20 mg/kg, 20 mg/kg oral, 3 h, mean of 6 rats, read-out: Concentrations in Plasma of Rats after Oral Administration, Mean ± SD): 59.9 ± 30.7 ng/mL
- concentration at 4 h ([2]; both sexes, Sprague-Dawley, rat, plasma, oral, 20 mg/kg, 20 mg/kg oral, 4 h, mean of 6 rats, read-out: Concentrations in Plasma of Rats after Oral Administration, Mean ± SD): 53.4 ± 21.6 ng/mL
- concentration at 6 h ([2]; both sexes, Sprague-Dawley, rat, plasma, oral, 20 mg/kg, 20 mg/kg oral, 6 h, mean of 6 rats, read-out: Concentrations in Plasma of Rats after Oral Administration, Mean ± SD): 36.4 ± 11.7 ng/mL
- concentration at 8 h ([2]; both sexes, Sprague-Dawley, rat, plasma, oral, 20 mg/kg, 20 mg/kg oral, 8 h, mean of 6 rats, read-out: Concentrations in Plasma of Rats after Oral Administration, Mean ± SD): 18.1 ± 5.3 ng/mL
- concentration at 10 h ([2]; both sexes, Sprague-Dawley, rat, plasma, oral, 20 mg/kg, 20 mg/kg oral, 10 h, mean of 6 rats, read-out: Concentrations in Plasma of Rats after Oral Administration, Mean ± SD): 9.79 ± 2.62 ng/mL
- concentration at 12 h ([2]; both sexes, Sprague-Dawley, rat, plasma, oral, 20 mg/kg, 20 mg/kg oral, 12 h, mean of 6 rats, read-out: Concentrations in Plasma of Rats after Oral Administration, Mean ± SD): 5.12 ± 1.67 ng/mL
- concentration at 14 h ([2]; both sexes, Sprague-Dawley, rat, plasma, oral, 20 mg/kg, 20 mg/kg oral, 14 h, mean of 6 rats, read-out: Concentrations in Plasma of Rats after Oral Administration, Mean ± SD): 4.08 ± 1.66 ng/mL
- concentration at 24 h ([2]; both sexes, Sprague-Dawley, rat, plasma, oral, 20 mg/kg, 20 mg/kg oral, 24 h, mean of 6 rats, read-out: Concentrations in Plasma of Rats after Oral Administration, Mean ± SD): 0.64 ± 0.32 ng/mL
- bioavailability ([2]; both sexes, Sprague-Dawley, rat, plasma, oral, 20 mg/kg, rats, oral 20 mg/kg vs iv 2 mg/kg, n = 6): 7.51 ± 2.77%
- AUC(0-t) ([2]; both sexes, Sprague-Dawley, rat, plasma, po, 20 mg/kg, gavage administration of 20 mg/kg, rats, read-out: AUC0-t in the rats' plasma): 489 ± 180 ng·h/mL
- bioavailability ([2]; both sexes, Sprague-Dawley, rat, plasma, po, 20 mg/kg, rats, oral 20 mg/kg vs iv 2 mg/kg, n = 6): 7.51 ± 2.77%
- F % ([2]; rats, oral 20 mg/kg vs iv 2 mg/kg, individual rats 1-6): 12.83% and 6.36% and 7.40% and 7.17% and 6.55% and 4.75%
- AUC0-t (area under the plasma concentration-time curve from zero to the last sampling time) [2, 3]: 836.1 ng·h/mL and 415.8 ng·h/mL and 480.4 ng·h/mL and 467.8 ng·h/mL and 427.0 ng·h/mL and 309.2 ng·h/mL
- AUC0-∞ [2, 3]: 839.3 ng·h/mL and 416.2 ng·h/mL and 484 ng·h/mL and 469.3 ng·h/mL and 428.7 ng·h/mL and 310.6 ng·h/mL
- Cmax [2, 3]: 182.0 ng/mL and 85.2 ng/mL and 91.8 ng/mL and 89.2 ng/mL and 93.2 ng/mL and 56.4 ng/mL
- MRT0-∞ [2, 3]: 4.65 h and 4.73 h and 4.67 h and 4.60 h and 5.35 h
- t1/2 [2, 3]: 2.20 h and 3.50 h and 2.83 h and 3.06 h and 3.10 h
